Here are results for 2 compounds from patent US10837005B2, “Recombinant microorganism capable of producing methyl anthranilate and method of producing methyl anthranilate using the same” (priority 2019, dated 2020).

The structures appear in SMILES notation.

Series [1] in a line: Partition coefficient between aqueous-phase culture medium and organic-phase tributyrin. It is filed as physicochemical. As to conditions: aqueous phase: Carbon-free MR minimum medium, organic phase tributyrin. As for the experimental part:
In order to solve the problem of toxicity of MANT, a two-phase aqueous organic culture system was used in the present invention (FIG. 5 in part a). Tributyrin was used as an organic solvent to extract MANT from the culture medium. Tributyrin extraction capacity was determined by measuring the partition coefficient between the aqueous medium of MANT and tributyrin, the solvent, and the result is shown in Table 2. Tributyrin is also capable of extracting ANT, but the amount of ANT extracted is very small compared to the amount of MANT and thus is negligible. […] The culture was carried out under the same conditions as in Example 1-2, except that, when IPTG was added, 10 mL of tributyrin was added therewith. MANT productivity was calculated on an aqueous phase basis (that is, Titer=Caq·Vaq+Corg·Vorg)/Vaq)).

The subject of another series is E. coli. The series can be described thus: MANT toxicity test on E. coli. Format: cell-based. As to the method:
[…]. The low resistance of E. coli to MANT could adversely affect E. coli mutations that produce MANT at high concentrations. Thus, E. coli was cultured in a modified culture system.

Series [2] deals with Pseudomonas putida KT2440.

As to `Nc1ccccc1C(=O)O` [Anthranilate, anthranilic acid], the Partition coefficient in series [1] (pH 5.0) is recorded as 4.7 ± 0.2; in series [1] (pH 7.0) it was 0.1 ± 0.0; in series [1] (pH 9.0), “Very low”.
`COC(=O)c1ccccc1N` [MANT, Methyl anthranilate] registered a Partition coefficient in series [1] (pH 7.0) of 420.1 ± 7.6. Also, the “MANT concentration E. coli can withstand” value in the series with E. coli is “up to 0.5 g/L”. Also, the “final OD600 value” in the series on E. coli (E. coli exposed to various concentrations of MANT up to 1 g/L) is reported as “significantly reduced”. Further, the “final OD600 value relative to base strain not exposed to MANT” value with E. coli (exposed to 0.5 g/L of MANT) was “about one third”. Further, in series [2] (P. putida KT2440), the “MANT concentration at which strain was not capable of growing” value stood at 1.0 g/L. The growth profile result in series [2] (P. putida KT2440, various MANT concentrations) is reported as “concentration-dependent inhibition”; with C. glutamicum ATCC 13032 (C. glutamicum ATCC 13032, various MANT concentrations), “concentration-dependent inhibition”. The “MANT concentration at which growth was completely inhibited” value in the series on C. glutamicum ATCC 13032 (C. glutamicum) turned out to be 2.0 g/L.
